Data published in paper PMC5218480 (PLoS ONE, 2017).

Tested on: MV-4-11 cells
Test: Gene expression microarray analysis (Affymetrix PrimeView) and GSEA
Assay type: cell-based, human
Parameters: RFU PODN (11730768_x_at) / Fold change /veh PODN (11730768_x_at) / RFU LINC00158 (11744669_a_at) / Fold change /veh LINC00158 (11744669_a_at) / RFU DUSP10 (11751237_a_at) / Fold change /veh DUSP10 (11751237_a_at) / RFU ID3 (11757404_x_at) / Fold change /veh ID3 (11757404_x_at) / RFU PLEKHG5 (11737974_s_at) / Fold change /veh PLEKHG5 (11737974_s_at) / RFU LRRC4B (11730491_at) / Fold change /veh LRRC4B (11730491_at) / RFU GIMAP4 (11747438_a_at) / Fold change /veh GIMAP4 (11747438_a_at) / RFU KRT8 (11758183_x_at) / Fold change /veh KRT8 (11758183_x_at) / RFU CNN1 (11734310_a_at) / Fold change /veh CNN1 (11734310_a_at) / RFU VPS37D (11726825_at) / Fold change /veh VPS37D (11726825_at) / RFU C10orf10 (11716522_x_at) / Fold change /veh C10orf10 (11716522_x_at) / RFU KIR2DL2 /// KIR2DL4 /// KIR2DL5A /// KIR2DL5B /// KIR2DS1 /// KIR2DS2 /// KIR2DS3 /// KIR2DS4 /// KIR3DL3 /// KIR3DL3 /// KIR3DS1 (11738374_at) / Fold change /veh KIR2DL2 /// KIR2DL4 /// KIR2DL5A /// KIR2DL5B /// KIR2DS1 /// KIR2DS2 /// KIR2DS3 /// KIR2DS4 /// KIR3DL3 /// KIR3DL3 /// KIR3DS1 (11738374_at) / RFU C1QL1 (11718748_at) / Fold change /veh C1QL1 (11718748_at) / RFU TMPRSS4 (11747572_a_at) / Fold change /veh TMPRSS4 (11747572_a_at) / RFU HAMP (11756126_x_at) / Fold change /veh HAMP (11756126_x_at) / RFU RNFT2 (11725882_a_at) / Fold change /veh RNFT2 (11725882_a_at) / RFU NR4A2 (11747474_a_at) / Fold change /veh NR4A2 (11747474_a_at) / RFU ABCC12 (11746883_a_at) / Fold change /veh ABCC12 (11746883_a_at) / RFU TMEM136 (11760407_x_at) / Fold change /veh TMEM136 (11760407_x_at) / RFU CLDN22 /// WWC2 (11732394_at) / Fold change /veh CLDN22 /// WWC2 (11732394_at) / RFU HLA-DPB1 (11760878_x_at) / Fold change /veh HLA-DPB1 (11760878_x_at) / RFU SPINT1 (11716480_a_at) / Fold change /veh SPINT1 (11716480_a_at) / RFU GAP43 (11754022_s_at) / Fold change /veh GAP43 (11754022_s_at) / RFU A4GNT (11735810_at) / Fold change /veh A4GNT (11735810_at) / RFU PRB3 (11715151_x_at) / Fold change /veh PRB3 (11715151_x_at) / RFU TUBB4B (11761932_at) / Fold change /veh TUBB4B (11761932_at) / RFU CAPN14 (11732068_a_at) / Fold change /veh CAPN14 (11732068_a_at) / RFU TMCC2 (11721928_a_at) / Fold change /veh TMCC2 (11721928_a_at) / RFU IRGQ (11745062_a_at) / Fold change /veh IRGQ (11745062_a_at) / RFU FAM174B (11720279_a_at) / Fold change /veh FAM174B (11720279_a_at) / RFU TMPRSS4 (11748680_a_at) / Fold change /veh TMPRSS4 (11748680_a_at) / RFU FAM212B (11763350_a_at) / Fold change /veh FAM212B (11763350_a_at) / RFU PLEKHG5 (11743358_a_at) / Fold change /veh PLEKHG5 (11743358_a_at) / RFU ZSCAN30 (11745921_a_at) / Fold change /veh ZSCAN30 (11745921_a_at) / RFU CMKLR1 (11741424_a_at) / Fold change /veh CMKLR1 (11741424_a_at) / RFU LOC101060620 /// MAPK8IP1 (11723275_at) / Fold change /veh LOC101060620 /// MAPK8IP1 (11723275_at) / RFU SPTSSB (11747773_x_at) / Fold change /veh SPTSSB (11747773_x_at) / RFU PRSS12 (11739890_at) / Fold change /veh PRSS12 (11739890_at) / RFU BIN1 (11741810_x_at) / Fold change /veh BIN1 (11741810_x_at) / RFU WNT11 (11732464_a_at) / Fold change /veh WNT11 (11732464_a_at) / RFU C10orf10 (11716521_a_at) / Fold change /veh C10orf10 (11716521_a_at) / RFU C5orf56 (11738089_at) / Fold change /veh C5orf56 (11738089_at) / RFU CYB561 (11721691_x_at) / Fold change /veh CYB561 (11721691_x_at) / RFU ANKRD19P (11752326_a_at) / Fold change /veh ANKRD19P (11752326_a_at) / RFU OR2T12 /// OR2T33 /// OR2T8 (11738714_s_at) / Fold change /veh OR2T12 /// OR2T33 /// OR2T8 (11738714_s_at) / RFU VCAN (11748164_a_at) / Fold change /veh VCAN (11748164_a_at) / RFU JSRP1 (11732532_at) / Fold change /veh JSRP1 (11732532_at) / RFU KRTAP10-11 (11738290_x_at) / Fold change /veh KRTAP10-11 (11738290_x_at) / RFU MYO3A (11730013_a_at) / Fold change /veh MYO3A (11730013_a_at) / RFU EBF3 (11725865_a_at) / Fold change /veh EBF3 (11725865_a_at) / RFU CAMK2N1 (11719241_x_at) / Fold change /veh CAMK2N1 (11719241_x_at) / RFU C5orf56 (11738088_a_at) / Fold change /veh C5orf56 (11738088_a_at) / RFU OLFML3 (11715873_a_at) / Fold change /veh OLFML3 (11715873_a_at) / RFU LOC100653217 /// NTM (11731650_a_at) / Fold change /veh LOC100653217 /// NTM (11731650_a_at) / RFU MAPK11 (11762145_a_at) / Fold change /veh MAPK11 (11762145_a_at) / RFU FIZ1 (11724087_x_at) / Fold change /veh FIZ1 (11724087_x_at) / RFU OASL (11726364_x_at) / Fold change /veh OASL (11726364_x_at) / RFU SOX15 (11748057_x_at) / Fold change /veh SOX15 (11748057_x_at) / RFU CD79A (11719716_a_at) / Fold change /veh CD79A (11719716_a_at) / RFU HIST1H1D (11736915_at) / Fold change /veh HIST1H1D (11736915_at) / RFU CASKIN2 (11723855_a_at) / Fold change /veh CASKIN2 (11723855_a_at) / RFU LOC730098 (11760151_x_at) / Fold change /veh LOC730098 (11760151_x_at) / RFU OR4N2 (11742367_at) / Fold change /veh OR4N2 (11742367_at) / RFU PRRT2 (11749266_a_at) / Fold change /veh PRRT2 (11749266_a_at) / RFU SNX32 (11753110_a_at) / Fold change /veh SNX32 (11753110_a_at) / RFU CDHR5 (11726645_a_at) / Fold change /veh CDHR5 (11726645_a_at) / RFU RCAN1 (11760418_a_at) / Fold change /veh RCAN1 (11760418_a_at) / RFU FAM167A (11723789_a_at) / Fold change /veh FAM167A (11723789_a_at) / RFU FAM26E (11764081_at) / Fold change /veh FAM26E (11764081_at) / RFU ISYNA1 (11749810_s_at) / Fold change /veh ISYNA1 (11749810_s_at) / RFU ACY1 (11761880_at) / Fold change /veh ACY1 (11761880_at) / RFU 11764098_at / Fold change /veh 11764098_at / RFU SAMD14 (11745864_x_at) / Fold change /veh SAMD14 (11745864_x_at) / RFU NPB (11741838_a_at) / Fold change /veh NPB (11741838_a_at) / RFU TMPRSS6 (11731388_a_at) / Fold change /veh TMPRSS6 (11731388_a_at) / RFU KRTAP10-2 (11738614_at) / Fold change /veh KRTAP10-2 (11738614_at) / RFU ARHGAP8 /// PRR5-ARHGAP8 (11727945_x_at) / Fold change /veh ARHGAP8 /// PRR5-ARHGAP8 (11727945_x_at) / RFU KRTAP5-7 /// NADSYN1 (11734609_at) / Fold change /veh KRTAP5-7 /// NADSYN1 (11734609_at) / RFU RASL12 (11751679_a_at) / Fold change /veh RASL12 (11751679_a_at) / RFU CDKN2B (11736163_a_at) / Fold change /veh CDKN2B (11736163_a_at) / RFU PRF1 (11729649_at) / Fold change /veh PRF1 (11729649_at) / RFU, ZNF638 /// ZNF638-IT1 / Fold change vs veh, ZNF638 /// ZNF638-IT1 / RFU, PANK3 / Fold change vs veh, PANK3 / RFU, SH3YL1 / Fold change vs veh, SH3YL1 / RFU, ZEB2 / Fold change vs veh, ZEB2 / RFU, NRIP1 / Fold change vs veh, NRIP1 / RFU, PTTG1IP / Fold change vs veh, PTTG1IP / RFU, CAPN2 / Fold change vs veh, CAPN2 / RFU, MED14 / Fold change vs veh, MED14 / RFU, SNORA58 / Fold change vs veh, SNORA58 / RFU, C1orf63 / Fold change vs veh, C1orf63 / RFU, LRRFIP1 / Fold change vs veh, LRRFIP1 / RFU, NDUFAF7 / Fold change vs veh, NDUFAF7 / RFU, SLC12A2 / Fold change vs veh, SLC12A2 / RFU, IBTK / Fold change vs veh, IBTK / RFU, ESF1 / Fold change vs veh, ESF1 / Fold change vs veh, TMEM50B / RFU, TAOK1 / Fold change vs veh, TAOK1 / RFU, ACBD3 / Fold change vs veh, ACBD3 / RFU, TMA16 / Fold change vs veh, TMA16 / RFU, RWDD3 / Fold change vs veh, RWDD3 / RFU, BCAT1 / Fold change vs veh, BCAT1 / RFU, EDEM3 / Fold change vs veh, EDEM3 / RFU, TMEM33 / Fold change vs veh, TMEM33 / RFU, WDR75 / Fold change vs veh, WDR75 / RFU, AHCTF1 / Fold change vs veh, AHCTF1 / RFU, TFRC / Fold change vs veh, TFRC / RFU, ZDHHC17 / Fold change vs veh, ZDHHC17 / RFU, NOM1 / Fold change vs veh, NOM1 / RFU, ARL8B / Fold change vs veh, ARL8B / RFU, ZBTB11 / Fold change vs veh, ZBTB11 / RFU, TAMM41 / Fold change vs veh, TAMM41 / RFU, KIAA1704 /// LOC100996395 / Fold change vs veh, KIAA1704 /// LOC100996395 / RFU, ING1 / Fold change vs veh, ING1 / RFU, TRMT61B / Fold change vs veh, TRMT61B / RFU, FUBP3 / Fold change vs veh, FUBP3 / RFU, TP53 / Fold change vs veh, TP53 / RFU, TNKS2 / Fold change vs veh, TNKS2 / RFU, ZFP14 / Fold change vs veh, ZFP14 / RFU, ACTR2 / Fold change vs veh, ACTR2 / RFU, PPP3R1 / Fold change vs veh, PPP3R1 / RFU, PIK3R1 / Fold change vs veh, PIK3R1 / RFU, HNRNPA1 / Fold change vs veh, HNRNPA1 / RFU, RNF170 / Fold change vs veh, RNF170 / RFU, ZNF28 / Fold change vs veh, ZNF28 / RFU, RNGTT / Fold change vs veh, RNGTT / RFU, OGT / Fold change vs veh, OGT / RFU, BRD1 / Fold change vs veh, BRD1 / RFU, MARS / Fold change vs veh, MARS / RFU, ZNF655 / Fold change vs veh, ZNF655 / RFU, FAHD1 / Fold change vs veh, FAHD1 / RFU, BDP1 / Fold change vs veh, BDP1 / RFU, LRRCC1 / Fold change vs veh, LRRCC1 / RFU, ARID1A / Fold change vs veh, ARID1A / RFU, ZNF146 / Fold change vs veh, ZNF146 / RFU, ZNF330 / Fold change vs veh, ZNF330 / RFU, GPN3 / Fold change vs veh, GPN3 / RFU, C9orf123 / Fold change vs veh, C9orf123 / RFU, N4BP2L2 / Fold change vs veh, N4BP2L2 / RFU, ARFIP1 / Fold change vs veh, ARFIP1 / RFU, FAM179B / Fold change vs veh, FAM179B / RFU, BCL10 / Fold change vs veh, BCL10 / RFU, UHRF1BP1L / Fold change vs veh, UHRF1BP1L / RFU, BET1 / Fold change vs veh, BET1 / RFU, CNOT2 / Fold change vs veh, CNOT2 / RFU, ZNF268 / Fold change vs veh, ZNF268 / Fold change vs veh, ZNF507 / RFU, DGCR2 / Fold change vs veh, DGCR2 / RFU, WDSUB1 / Fold change vs veh, WDSUB1 / Fold change vs veh, HSP90B1 /// MIR3652 / RFU, ADSS / Fold change vs veh, ADSS / RFU, GK / Fold change vs veh, GK / RFU, ZNF148 / Fold change vs veh, ZNF148 / RFU, TAF9 / Fold change vs veh, TAF9 / RFU, SLC1A5 / Fold change vs veh, SLC1A5 / RFU, SLMO2 / Fold change vs veh, SLMO2 / RFU, ABCC4 / Fold change vs veh, ABCC4 / RFU, LOC101060439 /// RAP1B / Fold change vs veh, LOC101060439 /// RAP1B / RFU, RFX7 / Fold change vs veh, RFX7 / RFU, GTPBP10 / Fold change vs veh, GTPBP10 / RFU, CNEP1R1 / Fold change vs veh, CNEP1R1 / RFU, BIVM-ERCC5 /// ERCC5 / Fold change vs veh, BIVM-ERCC5 /// ERCC5 / RFU, ILF3 / Fold change vs veh, ILF3 / RFU 11762660_at / Fold change /veh 11762660_at / RFU VCAN (11757783_s_at) / Fold change /veh VCAN (11757783_s_at) / RFU DDX43 (11728927_at) / Fold change /veh DDX43 (11728927_at) / RFU KRT8 (11758188_x_at) / Fold change /veh KRT8 (11758188_x_at) / RFU NKD1 (11759106_at) / Fold change /veh NKD1 (11759106_at) / RFU SRD5A1 (11742802_a_at) / Fold change /veh SRD5A1 (11742802_a_at) / RFU TPSAB1 /// TPSB2 (11721975_s_at) / Fold change /veh TPSAB1 /// TPSB2 (11721975_s_at) / RFU GSTM3 (11746129_a_at) / Fold change /veh GSTM3 (11746129_a_at) / RFU IL23R (11737362_x_at) / Fold change /veh IL23R (11737362_x_at) / RFU TMEM51 (11727254_a_at) / Fold change /veh TMEM51 (11727254_a_at) / RFU PIWIL2 (11732686_x_at) / Fold change /veh PIWIL2 (11732686_x_at) / RFU ORM1 (11744905_x_at) / Fold change /veh ORM1 (11744905_x_at) / RFU CCDC152 (11743942_at) / Fold change /veh CCDC152 (11743942_at) / RFU ECM1 (11717891_a_at) / Fold change /veh ECM1 (11717891_a_at) / RFU IL23R (11748794_a_at) / Fold change /veh IL23R (11748794_a_at) / RFU TNFAIP8L3 (11732012_x_at) / Fold change /veh TNFAIP8L3 (11732012_x_at) / RFU MBOAT4 (11741988_at) / Fold change /veh MBOAT4 (11741988_at) / RFU 11764193_at / Fold change /veh 11764193_at / RFU TMEM53 (11763286_at) / Fold change /veh TMEM53 (11763286_at) / RFU MAGEB2 (11727129_at) / Fold change /veh MAGEB2 (11727129_at) / RFU TMEM200A (11744735_a_at) / Fold change /veh TMEM200A (11744735_a_at) / RFU CCDC152 (11751479_a_at) / Fold change /veh CCDC152 (11751479_a_at) / RFU FAM211A (11726209_a_at) / Fold change /veh FAM211A (11726209_a_at) / RFU RGS16 (11746705_a_at) / Fold change /veh RGS16 (11746705_a_at) / RFU VCAN (11755009_s_at) / Fold change /veh VCAN (11755009_s_at) / RFU RHOB (11743442_s_at) / Fold change /veh RHOB (11743442_s_at) / RFU RGS16 (11720943_a_at) / Fold change /veh RGS16 (11720943_a_at) / RFU RGS16 (11720944_at) / Fold change /veh RGS16 (11720944_at) / RFU, VPS4B / Fold change vs veh, VPS4B / RFU, CREB1 / Fold change vs veh, CREB1 / RFU, DNAJC13 / Fold change vs veh, DNAJC13 / RFU, GNAQ / Fold change vs veh, GNAQ / RFU, CDK5R1 / Fold change vs veh, CDK5R1 / RFU, ZRANB3 / Fold change vs veh, ZRANB3 / RFU, CUL4A / Fold change vs veh, CUL4A / RFU, CCNY / Fold change vs veh, CCNY / RFU, UFL1 / Fold change vs veh, UFL1 / RFU, COG3 / Fold change vs veh, COG3 / RFU, DIAPH2 / Fold change vs veh, DIAPH2 / RFU, SKA2 / Fold change vs veh, SKA2 / RFU, AFF3 / Fold change vs veh, AFF3 / RFU, LMF1 / Fold change vs veh, LMF1 / RFU, IPO11 / Fold change vs veh, IPO11 / RFU, DFFB / Fold change vs veh, DFFB / RFU, FOXP1 / Fold change vs veh, FOXP1 / RFU, CARD8 / Fold change vs veh, CARD8 / RFU, STRN3 / Fold change vs veh, STRN3 / RFU, ADK / Fold change vs veh, ADK / RFU, RASSF2 / Fold change vs veh, RASSF2 / RFU, WIPF1 / Fold change vs veh, WIPF1 / RFU, LARP1B / Fold change vs veh, LARP1B / RFU, RASA1 / Fold change vs veh, RASA1 / RFU, RB1 / Fold change vs veh, RB1 / RFU, PPFIA1 / Fold change vs veh, PPFIA1 / RFU, MAT2A / Fold change vs veh, MAT2A / RFU, CCT5 / Fold change vs veh, CCT5 / RFU, WDR92 / Fold change vs veh, WDR92 / RFU, CUX1 / Fold change vs veh, CUX1 / RFU, TTC7A / Fold change vs veh, TTC7A / RFU, TMEM135 / Fold change vs veh, TMEM135 / RFU, DEPTOR / Fold change vs veh, DEPTOR / RFU, CPM / Fold change vs veh, CPM / RFU, DNAJB6 / Fold change vs veh, DNAJB6 / RFU, CACNA2D3 / Fold change vs veh, CACNA2D3 / RFU, DTX4 / Fold change vs veh, DTX4 / RFU, TFCP2 / Fold change vs veh, TFCP2 / RFU, GMCL1 /// GMCL1P1 / Fold change vs veh, GMCL1 /// GMCL1P1 / RFU, AEBP2 / Fold change vs veh, AEBP2 / RFU, SNHG1 /// SNORD22 /// SNORD25 /// SNORD26 /// SNORD27 /// SNORD28 /// SNORD29 /// SNORD31 / Fold change vs veh, SNHG1 /// SNORD22 /// SNORD25 /// SNORD26 /// SNORD27 /// SNORD28 /// SNORD29 /// SNORD31 / Fold change (Aza/veh), C12orf56 (ProbeSet 11735607_a_at) / Fold change (ACY-1035/veh), C12orf56 (ProbeSet 11735607_a_at) / Fold change (Aza/veh), FGFR1OP (ProbeSet 11751329_s_at) / Fold change (ACY-1035/veh), FGFR1OP (ProbeSet 11751329_s_at) / Fold change (Aza/veh), VPS36 (ProbeSet 11739960_a_at) / Fold change (ACY-1035/veh), VPS36 (ProbeSet 11739960_a_at) / RFU SYPL1 (11715823_x_at) / Fold change /veh SYPL1 (11715823_x_at) / RFU IGFBP7 (11715501_s_at) / Fold change /veh IGFBP7 (11715501_s_at) / RFU REEP3 (11722064_at) / Fold change /veh REEP3 (11722064_at) / RFU IGLL1 (11728026_x_at) / Fold change /veh IGLL1 (11728026_x_at): dose or concentration left out as unconfirmed
Details: MV-4-11 cells, 48 hours

Structure (SMILES): Nc1ncn([C@@H]2O[C@H](CO)[C@@H](O)[C@H]2O)c(=O)n1 [azacitidine]
- RFU DUSP10 (11751237_a_at): 30.26 RFU
